How the values were obtained:
[1] = system: P. aeruginosa PA14 biofilm; assay: Biofilm formation, microtitre plate crystal violet assay; type: cell-based, Pseudomonas aeruginosa; conditions: p<0.05
Description: (§1) Biofilm formation is quantified using the standard microtitre plate model. […] Aliquots (100 μL) of these cultures are transferred into the wells of polystyrene, flat bottom, non-treated 96 well plates (Falcon™, Corning™), in triplicate. For all assays, biofilms are allowed to develop for 16 h at 37° C. under static conditions, after which OD600 values are recorded, the spent broth is decanted from the wells, and the wells are gently rinsed three times with DI water. The washed biofilm is stained with crystal violet (CV). For CV stain assay, 100 μL of 0.1% (w/v) CV is loaded in each well and the plates are incubated for 15 min under static conditions at room temperature. The wells are subsequently rinsed with DI water to remove excess dye and the CV adsorbed to the biomass in each well is solubilized in 100 μL of absolute ethanol for 10 min. The solubilized CV is then quantified (as OD570) using a microplate reader. Control experiments are performed with cell-free broth to adjust for the background signal.

[2] = system: P. aeruginosa PAO1 biofilm; assay: as above; type: cell-based, Pseudomonas aeruginosa; conditions: p<0.05
Description: as §1

E. coli CFT073 [3] = assay: Bacterial colony forming ability (CFU counts after exposure); type: cell-based, Escherichia coli; conditions: log decrease vs untreated control, 4 × MIC, 10 min, CTAB 10 μM
Description: (§2) The BacLight kit (L-13152, Invitrogen™, Life Technologies Inc., Canada) is used to assess cell membrane damage. Overnight bacterial cultures are diluted 1:40 in fresh MHBII broth to a final volume of 5 mL, grown to an OD600 of 0.5-0.6, washed with filter-sterilized 10 mM phosphate buffered saline (PBS, pH 7.0) and resuspended in 1/10 of the original volume. […] Cultures are incubated at room temperature (21±2° C.) on a tube rocker for 10 min. At the end of the incubation period, an aliquot is taken for CFU counts and the remaining suspension is washed with 10 mM PBS and resuspended to an OD600) of 0.3. An aliquot (100 μL) of each bacterial suspension is removed and added to a 96-well, black, clear-bottom plate (Corning™, Fisher Scientific, ON, Canada) along with an equal volume of the BacLight™ reagent (2× stock solution, L13152, Invitrogen™, Life Technologies Inc., Canada) and the plates are incubated for 10 min at room temperature in the dark. At the end of the incubation period, fluorescence intensity is recorded for both kit components, SYTO-9 (ex/em 485/530 nm) and propidium iodide (ex/em 485/645 nm), using the microplate reader. Fluorescence readings from samples are normalized to the values obtained from untreated control to determine the ratio of membrane compromised cells to cells with intact membrane. Cetyltrimethylammonium bromide (CTAB, Sigma-Aldrich Canada), a cationic detergent that is known to cause membrane damage, is used at concentration of 10 μM as a positive control for membrane disruption.

[4] = system: cell membrane of P. aeruginosa PAO1; assay: BacLight membrane integrity assay; type: cell-based, Pseudomonas aeruginosa; conditions: PRMSE, catechol at 4 × MIC for 10 min; CTAB 10 μM; untreated = 100
Description: as §2

[5] = system: cell membrane of P. aeruginosa PA14; assay: BacLight membrane integrity assay; type: cell-based, Pseudomonas aeruginosa; conditions: PRMSE, catechol at 4 × MIC for 10 min; CTAB 10 μM; untreated = 100
Description: as §2

[6] = system: proton motive force-driven multidrug efflux pump of P. mirabilis HI4320; assay: Ethidium bromide (EtBr) efflux assay; type: cell-based, Proteus mirabilis; conditions: PRMSE, catechol at 0.25 times the MIC; CCCP 100 μM; untreated cells 35.9
Description: (§3) An overnight grown culture of each strain is diluted 1:100 using MHB-II broth to a final volume of 10 mL and grown to an OD600 of 0.8-1.0 (at 37° C., 150 rpm). […] The tubes are incubated for 1 h (37° C., 150 rpm). The inoculum is then adjusted to 0.4 OD600 with MHB-II broth containing 5 μM EtBr and 2 mL aliquots of this mixture are pelleted (5000×g, 10 min at 4° C.). The pellets are incubated on ice immediately, resuspended in 1 mL of MHB-II, and aliquoted (200 μL) into a polystyrene 96 well black, clear-bottom plate (Corning™, Fisher Scientific, ON, Canada). EtBr efflux from the cells is monitored at room temperature using the microplate reader (ex/em 530/600 nm). Readings are taken at 5 min intervals for 1 h to monitor efflux pump activity. The background fluorescence of the medium is subtracted from all measurements and the assay is repeated independently in triplicate.

[7] = system: P. mirabilis HI4320 biofilm; assay: Biofilm formation, microtitre plate crystal violet assay; type: cell-based, Proteus mirabilis; conditions: p<0.05
Description: as §1

P. mirabilis HI4320 = assay: Checkerboard microdilution assay (growth inhibition synergy); type: cell-based, Proteus mirabilis
Summary of the method: (§4)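 Two-fold serial dilutions of each agent were crossed in MHB-II, inoculated with 10^6 CFU mL^−1 and incubated static at 37° C. for 18 h. FICI is the sum of each component's MIC in combination divided by its MIC alone; […] synergy, 0.5–1 indifference, >4 antagonism.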

[8] = system: cell membrane of E. coli CFT073; assay: BacLight membrane integrity assay; type: cell-based, Escherichia coli; conditions: PRMSE, catechol at 4 × MIC for 10 min; CTAB 10 μM; untreated = 100
Description: as §2, with “Cetyltrimethylammonium bromide (CTAB, Sigma-Aldrich Canada), a cationic detergent that is known to cause membrane damage, is used at concentration of 10 μM as a positive control for membrane disruption.” left out

E. coli CFT073 [9] = assay: Checkerboard microdilution assay (growth inhibition synergy); type: cell-based, Escherichia coli
Summary of the method: as §4

[10] = system: proton motive force-driven multidrug efflux pump of P. aeruginosa PAO1; assay: Ethidium bromide (EtBr) efflux assay; type: cell-based, Pseudomonas aeruginosa; conditions: PRMSE, catechol at 0.25 times the MIC; CCCP 100 μM; untreated cells 37.6
Description: as §3

[11] = system: proton motive force-driven multidrug efflux pump of P. aeruginosa PA14; assay: Ethidium bromide (EtBr) efflux assay; type: cell-based, Pseudomonas aeruginosa; conditions: PRMSE, catechol at 0.25 times the MIC; CCCP 100 μM; untreated cells 30.9
Description: as §3

[12] = substance alone at sub-lethal concentrations, 16 h
[13] = with ciprofloxacin, both at sub-lethal concentrations
[14] = ciprofloxacin in combination with the labelled phenolic constituent
[15] = labelled constituent + gallic acid, * = synergistic
[16] = labelled constituent combined with gallic acid
[17] = labelled phenolic constituent in combination with ciprofloxacin

Compound: Oc1ccccc1O [catechol, 1,2-dihydroxybenzene]
- inhibition of monoculture biofilm formation (OD570/OD600) [1, 12]: significant inhibitory effects
- inhibitory effect on biofilm formation, with ciprofloxacin [1, 13]: significant inhibitory effects
- inhibition of monoculture biofilm formation (OD570/OD600) [2, 12]: significant inhibitory effects
- inhibitory effect on biofilm formation, with ciprofloxacin [2, 13]: significant inhibitory effects
- Bacterial colony forming ability (Δ log CFU mL^−1) (E. coli CFT073 [3]): 2.3 Δ log CFU mL^−1
- Bacterial colony forming ability (Δ log CFU mL^−1) (E. coli CFT073 [3]; listed as Catechol): ≥ 1.5 Δ log CFU mL^−1
- % cells with uncompromised membrane [4]: 80.4%
- % cells with uncompromised membrane [5]: 78.6%
- Efflux pump activity [6]: 33.9%
- inhibition of monoculture biofilm formation (OD570/OD600) [7, 12]: significant inhibitory effects
- inhibitory effect on biofilm formation, with ciprofloxacin [7, 13]: significant inhibitory effects
- FIC of ciprofloxacin (P. mirabilis HI4320; [14]): 0.25
- FICI, gallic acid (P. mirabilis HI4320; [15]): 0.37*
- FIC, gallic acid (P. mirabilis HI4320; [16]): 0.13
- FIC of compound (P. mirabilis HI4320; [17]): 0.25
- % cells with uncompromised membrane (BacLight assay) [8]: 68%
- FIC of ciprofloxacin (E. coli CFT073 [9]; [14]): 0.25
- FICI, gallic acid (E. coli CFT073 [9]; [15]): 0.25*
- FIC, gallic acid (E. coli CFT073 [9]; [16]): 0.13
- FIC of compound (E. coli CFT073 [9]; [17]): 0.25
- % EtBr efflux [10]: 35.8%
- Efflux pump activity [11]: 29.9%

— patent US10206906B2, “Synergistic combination of a phenolic-rich maple syrup extract and an antibiotic” (priority 2015, dated 2019)
